Assay [1] addresses T1, acyl-CoA: cholesterol acyltransferase (ACAT) (Oryctolagus cuniculus, UniProt G1SFD9).
T1 construct: tissue preparation containing rabbit intestinal microsomes; from tissue; host or cells: rabbit intestinal microsomes
T1 sequence (G1SFD9 1-524): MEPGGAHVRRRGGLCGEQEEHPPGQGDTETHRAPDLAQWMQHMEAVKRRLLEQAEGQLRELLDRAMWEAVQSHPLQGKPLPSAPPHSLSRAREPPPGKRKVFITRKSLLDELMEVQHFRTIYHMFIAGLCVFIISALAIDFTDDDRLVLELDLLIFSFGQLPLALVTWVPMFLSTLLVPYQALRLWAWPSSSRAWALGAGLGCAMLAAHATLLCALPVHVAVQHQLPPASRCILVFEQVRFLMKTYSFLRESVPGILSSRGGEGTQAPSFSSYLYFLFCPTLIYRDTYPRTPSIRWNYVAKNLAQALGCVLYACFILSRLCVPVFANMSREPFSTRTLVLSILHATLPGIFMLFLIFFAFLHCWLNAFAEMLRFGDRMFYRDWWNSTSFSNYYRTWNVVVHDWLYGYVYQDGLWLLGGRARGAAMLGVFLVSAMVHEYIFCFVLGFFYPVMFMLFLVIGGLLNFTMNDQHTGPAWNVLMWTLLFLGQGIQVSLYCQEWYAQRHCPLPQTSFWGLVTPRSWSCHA
Kind of assay: in vitro ACAT inhibition test (IAI), radiolabeled cholesterol oleate formed from radiolabeled oleic acid in rabbit intestinal microsomes. The class given is biochemical. The conditions noted are these: inhibition of acylation of cholesterol by oleic acid. How it is done:
The ability of representative compounds of the present invention to inhibit ACAT was measured using an in vitro test more fully described in Field FJ, Salone RG. Biochemica et Biophysica 1982;712:557-70. The test assesses the ability of a test compound to inhibit the acylation of cholesterol by oleic acid by measuring the amount of radiolabeled cholesterol oleate formed from radiolabeled oleic acid in a tissue preparation containing rabbit intestinal microsomes.
The data appear in Table 1 where they are expressed as IC50 values; i.e., the concentration of test compound required to inhibit the activity of the enzyme by 50%.

Assay [2] in a line: in vivo screen designated APCC, rats on high fat, high cholesterol diet with 0.5% cholic acid, blood cholesterol. To be noted: Rattus norvegicus, 16 h, dosed at 4 PM in CMC/Tween, sacrificed at 8 AM, high cholesterol diet overnight, read-out: APCC (% ΔTC). Also noted: species or system male Sprague-Dawley rats. An excerpt:
In one in vivo screen designated APCC, male Sprague-Dawley rats (200 to 225 g) were randomly divided into treatment groups and dosed at 4 PM with either vehicle (CMC/Tween) or suspensions of compounds in vehicle. The normal chow diet was then replaced with a high fat, high cholesterol diet with 0.5% cholic acid. The rats consumed this diet ad libitum during the night and were sacrificed at 8 AM to obtain blood samples for cholesterol analysis using standard procedures. Statistical differences between mean cholesterol values for the same vehicle were determined using analysis of variance followed by Fisher's least significant test. The results of this trial for representative compounds of the present invention also appear in Table 1.

The source of these data is patent US5239082A, “Sulfonamide tetrazole ACAT inhibitors” (Warner-Lambert Company, priority 1992, dated 1993).

Each structure is given as a SMILES string. pIC50: −log10 of the molar value.

On to `CCCCCCCCCCCCCCCCCCn1nnc(CS(=O)(=O)Nc2c(C(C)C)cccc2C(C)C)n1` [Example 5, N-[2,6-bis(1-methylethyl)phenyl]-2-octadecyl-2H-tetrazole-5-methanesulfonamide], for which, in assay [1], the pIC50 – broadly, the negative decadic logarithm of the IC50, by convention in mol/L – was 5.12. In assay [2], the change in vivo at 30 mg/kg was -31%.

In the case of `CCCCCCCCCCCCn1nnnc1CS(=O)(=O)Nc1c(OC)cc(OC)cc1OC` [Example 8, N-(2,4,6-trimethoxyphenyl)-1-dodecyl-1H-tetrazole-5-methanesulfonamide], the pIC50 in assay [1] was 5.43. In addition, the change in vivo at 30 mg/kg in assay [2] was -30%.

In assay [1], `CCCCCCCCCCCCn1nnc(C(C)(C)S(=O)(=O)Nc2c(C(C)C)cccc2C(C)C)n1` [Example 9, N-[2,6-Bis(1-methylethyl)phenyl]-2-dodecyl-α,α-dimethyl-2H-tetrazole-5-methanesulfonamide] had a pIC50 of 7.40. Further, the change in vivo at 30 mg/kg in assay [2] was -53%.

Compound `CCCCCCCCCCCCn1nnc(CS(=O)(=O)Nc2c(C(C)C)cccc2C(C)C)n1` [Example 1, N-[2,6-Bis(1-methylethyl)phenyl]-2-dodecyl-2H-tetrazole-5-methanesulfonamide] gave a pIC50 in assay [1] of 6.65. Besides, the change in vivo at 30 mg/kg in assay [2] was -61%.

Take `CCCCCCCCCCCCn1nnc(CS(=O)(=O)Nc2c(OC)cc(OC)cc2OC)n1` [Example 7, N-(2,4,6-trimethoxyphenyl)-2-dodecyl-2H-tetrazole-5-methanesulfonamide]: the pIC50 in assay [1] is 6.74. The change in vivo at 30 mg/kg in assay [2] is -60%.

In assay [1], `CCCCCCCCCCCCn1nnnc1CS(=O)(=O)Nc1c(C(C)C)cccc1C(C)C` [Example 6, N-[2,6-bis(1-methylethyl)phenyl]-1-dodecyl-1H-tetrazole-5-methanesulfonamide] showed a pIC50 of 5.92. Further, the change in vivo at 30 mg/kg in assay [2] is -41%.

Take `CCCCCCCCn1nnc(CS(=O)(=O)Nc2c(C(C)C)cccc2C(C)C)n1` [Example 4, N-[2,6-bis(1-methylethyl)phenyl]-2-octyl-2H-tetrazole-5-methanesulfonamide]: the pIC50 in assay [1] was 6.12. Also, the change in vivo at 30 mg/kg in assay [2] is -14%.

Consider `CCCCCCCCCCCCCCCCn1nnc(CS(=O)(=O)Nc2c(C(C)C)cccc2C(C)C)n1` [Example 2, N-[2,6-bis(1-methylethyl)phenyl]-2-hexadecyl-2H-tetrazole-5-methanesulfonamide], for which, in assay [1], the pIC50 was 6.22. In assay [2], the change in vivo at 30 mg/kg was -20%.

Regarding `CCCCCCCCCCCCCCn1nnc(CS(=O)(=O)Nc2c(C(C)C)cccc2C(C)C)n1` [Example 3, N-[2,6-bis(1-methylethyl)phenyl]-2-tetradecyl-2H-tetrazole-5-methanesulfonamide], the pIC50 in assay [1] was 6.82. Besides, in assay [2], the change in vivo at 30 mg/kg was -42%.
